Assay results: PMC9337991 (2022)

Test system: tandem Na+ and c-di-AMP riboswitch (DUF1646_cdA_WT transcript) (RNA, riboswitch) AUUUAUAAGGUUACUUUCGGUUGGAAUGGUUAUUACCAUUUUCAAGAGAAGCGGGCUCUGGGGUGGGAGGCUACCAAAUAUUGGUAUAGCUAUCCACCUUUAUUUAUUUUUUUUAAGACAACAACUGAAUAUAUUUAUACGCUGAAUCCGUUAGGAACGGGAGACCCAAAUAAUAGGGGUGAAUCCAAAGCGGUUGCUUUGGUAGGGUUAAGCUCUUUCGACCCGAAUCCGUCAGCUAAUCUCGUAAGCGGUGGAAGAGAAGGUGAUUGAUAUGCUUAAUUACACCUUUAGUUAAGGUAUAUAUUUUAGCAUACGCUGCAGAUACUUCUCUGCAGCUUUUUGUUUUAUAUACCACAAAUGUUGAGGAUGACAAUCUUCAAUGAGAAUCUGAAGGAGGAAUUAAAUAAUAUGGGAUCCAAAGGA
Assay: in vitro single-round transcription termination
Conditions: K+ 100 mM, Mg2+ 4 mM; 40 mM Tris-HCl pH 7.5, 37 °C; E. coli RNA polymerase; functional co-transcriptional response, no constant

binding: yes
Compound: Nc1ncnc2c1ncn2[C@@H]1O[C@@H]2COP(=O)(O)O[C@H]3[C@@H](O)[C@H](n4cnc5c(N)ncnc54)O[C@@H]3COP(=O)(O)O[C@H]2[C@H]1O
